# Assay results as given in ChEMBL document CHEMBL5665443, “Enzyme Inhibitor Single Concentration assay results for EUbOPEN Chemogenomics Library” (2024).
# Legend:
# Conditions in all cases: Hit No
# [1] = target: Uracil-DNA glycosylase (Homo sapiens) (UniProt P13051);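 further: UNG excision on a quenched double-stranded DNA oligo probe, with APE1 added for strand incision and turnover, read as fluorescence at 594 nm as strands separate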
# Description: Inhibition of UNG by quantifying inhibition of UNG-mediated cleavage and dissociation of quenched duplex DNA oligonucleotides, measured as fluorescence at 594 nm. To generate a functional strand incision and increase turn-over this assay is coupled to APE1.
# [2] = target: T1, Endonuclease 8-like 2 (Homo sapiens) (UniProt Q969S2);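 further: fluorescence at 594 nm reports NEIL2 cutting and release of a quenched double-stranded DNA oligo substrate, reduced signal read as inhibition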
# T1 sequence (whole entry): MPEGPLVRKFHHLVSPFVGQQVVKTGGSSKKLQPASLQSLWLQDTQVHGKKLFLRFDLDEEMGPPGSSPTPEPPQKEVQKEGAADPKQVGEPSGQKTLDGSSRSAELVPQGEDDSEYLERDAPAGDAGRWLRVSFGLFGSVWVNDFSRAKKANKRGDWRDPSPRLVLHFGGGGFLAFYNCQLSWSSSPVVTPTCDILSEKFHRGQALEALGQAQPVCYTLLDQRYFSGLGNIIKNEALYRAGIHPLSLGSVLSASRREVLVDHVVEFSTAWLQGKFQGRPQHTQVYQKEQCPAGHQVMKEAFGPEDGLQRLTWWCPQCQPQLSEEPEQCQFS
# Description: Inhibition of NEIL2 by quantifying inhibition of NEIL2-mediated cleavage and dissociation of quenched duplex DNA oligonucleotides, measured as fluorescence at 594 nm.
# [3] = target: Endonuclease 8-like 1 (Homo sapiens) (UniProt Q96FI4);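 further: fluorescence at 594 nm from quenched duplex DNA oligonucleotides released by NEIL1 cleavage and strand separation, reported as reduction of this enzyme activity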
# Sequence of Endonuclease 8-like 1 (Homo sapiens) (Q96FI4 whole entry): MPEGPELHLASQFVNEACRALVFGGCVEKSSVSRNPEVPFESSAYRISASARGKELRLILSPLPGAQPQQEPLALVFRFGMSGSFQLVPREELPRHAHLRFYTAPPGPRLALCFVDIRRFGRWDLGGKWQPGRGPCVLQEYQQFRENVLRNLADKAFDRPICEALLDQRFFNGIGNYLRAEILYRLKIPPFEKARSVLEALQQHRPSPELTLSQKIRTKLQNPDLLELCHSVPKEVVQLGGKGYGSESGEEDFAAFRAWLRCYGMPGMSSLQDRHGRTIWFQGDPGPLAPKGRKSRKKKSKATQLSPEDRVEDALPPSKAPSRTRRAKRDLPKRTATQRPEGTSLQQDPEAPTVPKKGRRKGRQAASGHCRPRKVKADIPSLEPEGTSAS
# Description: Inhibition of NEIL1 by quantifying inhibition of NEIL1-mediated cleavage and dissociation of quenched duplex DNA oligonucleotides, measured as fluorescence at 594 nm.
# [4] = target: G/T mismatch-specific thymine DNA glycosylase (Homo sapiens) (UniProt Q13569);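 further: human TDG cleavage of quenched duplex DNA oligonucleotides coupled to APE1, strand release read as fluorescence at 594 nm, inhibition of TDG activity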
# Sequence of G/T mismatch-specific thymine DNA glycosylase (Homo sapiens) (Q13569 whole entry, the tested form may be a part): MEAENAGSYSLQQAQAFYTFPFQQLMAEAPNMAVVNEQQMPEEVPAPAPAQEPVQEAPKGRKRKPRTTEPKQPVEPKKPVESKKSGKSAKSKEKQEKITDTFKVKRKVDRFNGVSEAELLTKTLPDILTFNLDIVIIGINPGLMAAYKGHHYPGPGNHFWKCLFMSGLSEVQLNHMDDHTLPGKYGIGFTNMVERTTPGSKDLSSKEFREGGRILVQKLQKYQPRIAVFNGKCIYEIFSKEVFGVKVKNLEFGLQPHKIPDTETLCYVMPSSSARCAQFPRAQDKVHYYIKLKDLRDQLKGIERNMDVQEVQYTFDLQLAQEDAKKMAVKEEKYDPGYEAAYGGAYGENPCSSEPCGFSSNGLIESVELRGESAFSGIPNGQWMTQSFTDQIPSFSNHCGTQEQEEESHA
# Description: Inhibition of TDG by quantifying inhibition of TDG-mediated cleavage and dissociation of quenched duplex DNA oligonucleotides, measured as fluorescence at 594 nm. To generate a functional strand incision and increase turn-over this assay is coupled to APE1.
# [5] = target: Methyl-CpG-binding domain protein 4 (Homo sapiens) (UniProt O95243);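 further: MBD4 activity read as fluorescence at 594 nm from cleavage and release of a quenched duplex DNA oligonucleotide, with APE1 coupled to incise the strand and raise turnover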
# Sequence of Methyl-CpG-binding domain protein 4 (Homo sapiens) (O95243 whole entry, the tested form may be a part): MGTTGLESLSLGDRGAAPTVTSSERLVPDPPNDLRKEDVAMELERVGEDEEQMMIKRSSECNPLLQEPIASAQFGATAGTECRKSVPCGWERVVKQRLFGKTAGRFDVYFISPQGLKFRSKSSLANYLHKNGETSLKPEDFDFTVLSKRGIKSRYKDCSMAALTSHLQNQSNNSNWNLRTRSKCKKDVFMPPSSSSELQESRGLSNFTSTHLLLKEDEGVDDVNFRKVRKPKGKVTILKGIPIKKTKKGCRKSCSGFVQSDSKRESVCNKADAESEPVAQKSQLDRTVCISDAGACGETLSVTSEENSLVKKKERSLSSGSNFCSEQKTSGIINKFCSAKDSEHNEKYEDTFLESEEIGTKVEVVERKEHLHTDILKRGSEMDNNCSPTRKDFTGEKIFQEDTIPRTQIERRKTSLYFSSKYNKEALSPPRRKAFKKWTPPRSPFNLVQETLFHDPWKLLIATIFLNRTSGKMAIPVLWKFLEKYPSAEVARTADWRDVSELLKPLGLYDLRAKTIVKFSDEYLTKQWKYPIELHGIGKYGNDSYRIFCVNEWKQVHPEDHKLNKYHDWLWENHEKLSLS
# Description: Inhibition of MBD4 by quantifying inhibition of MBD4-mediated cleavage and dissociation of quenched duplex DNA oligonucleotides, measured as fluorescence at 594 nm. To generate a functional strand incision and increase turn-over this assay is coupled to APE1.
# [6] = target: T2, Adenine DNA glycosylase (Homo sapiens) (UniProt Q9UIF7);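 further: human MUTYH activity read as 594 nm fluorescence from cleavage and release of a quenched DNA duplex, coupled with APE1 for strand incision, lower signal meaning inhibition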
# T2 sequence (whole entry): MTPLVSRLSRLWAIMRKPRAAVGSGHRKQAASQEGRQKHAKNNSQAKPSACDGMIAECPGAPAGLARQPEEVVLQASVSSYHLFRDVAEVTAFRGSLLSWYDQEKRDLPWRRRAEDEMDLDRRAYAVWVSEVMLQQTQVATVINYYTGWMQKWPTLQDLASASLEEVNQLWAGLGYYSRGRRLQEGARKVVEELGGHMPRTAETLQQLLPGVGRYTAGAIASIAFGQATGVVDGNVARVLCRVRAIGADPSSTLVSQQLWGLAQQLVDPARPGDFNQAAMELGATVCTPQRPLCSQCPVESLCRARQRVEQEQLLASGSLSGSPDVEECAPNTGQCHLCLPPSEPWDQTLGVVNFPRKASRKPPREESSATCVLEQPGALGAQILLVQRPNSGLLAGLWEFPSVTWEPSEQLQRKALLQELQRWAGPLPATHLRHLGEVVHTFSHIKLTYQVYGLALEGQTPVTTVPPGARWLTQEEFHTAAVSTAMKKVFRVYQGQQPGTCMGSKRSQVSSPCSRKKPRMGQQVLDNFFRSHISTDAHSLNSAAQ
# Description: Inhibition of MUTYH by quantifying inhibition of MUTYH-mediated cleavage and dissociation of quenched duplex DNA oligonucleotides, measured as fluorescence at 594 nm. To generate a functional strand incision and increase turn-over this assay is coupled to APE1.
# [7] = target: T3, Endonuclease III-like protein 1 (Homo sapiens) (UniProt P78549);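 further: enzyme assay tracking NTHL1 cutting and release of a quenched double-stranded DNA oligo substrate, read as fluorescence at 594 nm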
# T3 sequence (whole entry): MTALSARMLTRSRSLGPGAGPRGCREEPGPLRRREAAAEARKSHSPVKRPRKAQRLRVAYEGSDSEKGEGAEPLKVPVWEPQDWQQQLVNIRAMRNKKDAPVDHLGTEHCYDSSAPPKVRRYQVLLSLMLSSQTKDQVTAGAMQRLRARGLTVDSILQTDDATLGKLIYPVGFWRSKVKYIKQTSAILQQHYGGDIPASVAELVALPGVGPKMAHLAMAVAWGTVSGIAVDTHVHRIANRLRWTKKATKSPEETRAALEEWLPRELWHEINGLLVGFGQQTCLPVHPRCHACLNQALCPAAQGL
# Description: Inhibition of NTHL1 by quantifying inhibition of NTHL1-mediated cleavage and dissociation of quenched duplex DNA oligonucleotides, measured as fluorescence at 594 nm.
# [8] = target: N-glycosylase/DNA lyase (Homo sapiens) (UniProt O15527);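 further: OGG1 cleavage of a quenched duplex DNA oligonucleotide, coupled to APE1 for strand incision, read as fluorescence at 594 nm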
# Sequence of N-glycosylase/DNA lyase (Homo sapiens) (O15527 whole entry): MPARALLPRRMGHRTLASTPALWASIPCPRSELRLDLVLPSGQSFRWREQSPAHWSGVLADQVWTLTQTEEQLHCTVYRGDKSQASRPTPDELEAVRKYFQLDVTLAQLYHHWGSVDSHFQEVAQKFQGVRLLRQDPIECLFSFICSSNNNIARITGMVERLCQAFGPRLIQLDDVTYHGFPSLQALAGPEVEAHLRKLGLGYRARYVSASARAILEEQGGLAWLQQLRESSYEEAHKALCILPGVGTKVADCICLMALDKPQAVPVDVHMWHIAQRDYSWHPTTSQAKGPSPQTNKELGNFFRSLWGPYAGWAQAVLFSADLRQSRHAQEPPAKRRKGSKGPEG
# Description: Inhibition of OGG1 by quantifying inhibition of OGG1-mediated cleavage and dissociation of quenched duplex DNA oligonucleotides, measured as fluorescence at 594 nm. To generate a functional strand incision and increase turn-over this assay is coupled to APE1.
# [9] = target: T4, Single-strand selective monofunctional uracil DNA glycosylase (Homo sapiens) (UniProt Q53HV7);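 further: enzymatic SMUG1 assay coupled with APE1, reading fluorescence at 594 nm released when a quenched double-stranded DNA oligonucleotide substrate is cleaved and separated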
# T4 sequence (whole entry): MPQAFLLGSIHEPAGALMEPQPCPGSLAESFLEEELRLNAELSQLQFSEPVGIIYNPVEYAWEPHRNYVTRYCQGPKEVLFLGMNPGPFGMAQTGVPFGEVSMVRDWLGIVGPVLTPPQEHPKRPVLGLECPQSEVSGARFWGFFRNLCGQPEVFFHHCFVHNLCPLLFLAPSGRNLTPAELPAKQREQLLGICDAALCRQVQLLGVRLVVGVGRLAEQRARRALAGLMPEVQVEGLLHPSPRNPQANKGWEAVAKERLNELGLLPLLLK
# Description: Inhibition of SMUG1 by quantifying inhibition of SMUG1-mediated cleavage and dissociation of quenched duplex DNA oligonucleotides, measured as fluorescence at 594 nm. To generate a functional strand incision and increase turn-over this assay is coupled to APE1.
# Sequence of Uracil-DNA glycosylase (Homo sapiens) (P13051 whole entry): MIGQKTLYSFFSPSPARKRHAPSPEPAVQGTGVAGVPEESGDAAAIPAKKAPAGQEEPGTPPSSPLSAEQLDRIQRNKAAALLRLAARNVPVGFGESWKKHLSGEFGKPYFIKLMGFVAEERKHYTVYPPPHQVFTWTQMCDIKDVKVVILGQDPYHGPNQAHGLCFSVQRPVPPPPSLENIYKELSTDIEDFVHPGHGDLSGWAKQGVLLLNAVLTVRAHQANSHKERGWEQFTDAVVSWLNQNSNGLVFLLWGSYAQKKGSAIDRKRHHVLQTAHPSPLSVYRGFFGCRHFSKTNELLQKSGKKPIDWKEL
SMILES,inhibition ([1]; Compound Concentration 10.0 uM) [%],inhibition ([2]; Compound Concentration 10.0 uM) [%],inhibition ([3]; Compound Concentration 10.0 uM) [%],inhibition ([4]; Compound Concentration 10.0 uM) [%],inhibition ([5]; Compound Concentration 10.0 uM) [%],inhibition ([6]; Compound Concentration 10.0 uM) [%],inhibition ([7]; Compound Concentration 10.0 uM) [%],inhibition ([8]; Compound Concentration 10.0 uM) [%],inhibition ([9]; Compound Concentration 10.0 uM) [%],inhibition ([1]; Compound Concentration 1.0 uM) [%],inhibition ([4]; Compound Concentration 1.0 uM) [%],inhibition ([5]; Compound Concentration 1.0 uM) [%],inhibition ([6]; Compound Concentration 1.0 uM) [%],inhibition ([7]; Compound Concentration 1.0 uM) [%],inhibition ([8]; Compound Concentration 1.0 uM) [%],inhibition ([9]; Compound Concentration 1.0 uM) [%],inhibition ([2]; Compound Concentration 1.0 uM) [%],inhibition ([3]; Compound Concentration 1.0 uM) [%]
CCCCCNC(=O)N1CCC(CN(Cc2ccc(Cl)cc2)Cc2ccc([N+](=O)[O-])s2)C1 (configuration not stated),9.26,-1.51,-3.17,98.5,57.7,-5.57,1.34,13.5,13.7,–,–,–,–,–,–,–,–,–
CN1CCN(C(=O)C(C)(C)c2ccc(C(=O)Nc3cn4cc(-c5ccncc5)ccc4n3)cc2)CC1,6.5,-4.06,1.07,60.5,60.8,32.7,9.89,0.918,18.7,0.265,36.3,-4.56,33.1,4.27,-1.57,14.8,–,–
CCN(CC)CCCCNc1ncc2cc(-c3cc(OC)cc(OC)c3)c(NC(=O)NC(C)(C)C)nc2n1,–,–,–,–,–,–,–,–,–,4.12,36.3,12,14.1,-4.79,-1.83,21.2,3.2,6.87
CCC(=N\O)/C(C)=C/c1ccc(F)c(C)c1,3.87,0.276,-2.41,41.4,64.7,-0.87,-5.23,16.2,22.6,–,–,–,–,–,–,–,–,–
Cc1c(N2CCCC2)nc2ccc(Br)cc2c1C(=O)NC[C@H](CCC(=O)O)c1ccccc1Cl,5.08,-0.744,3.19,54,69.2,22,-1.95,31.5,12.3,–,–,–,–,–,–,–,–,–
CN(C)C(=O)Cn1cc(-c2ccc(-c3cncc4ccccc34)cc2)cn1,–,–,–,–,–,–,–,–,–,0.741,40.2,30,5.04,-6.19,-1.89,16.6,-1.92,-4.09
Oc1ccc2c3c1O[C@H]1c4[nH]c5c(c4C[C@@]4(O)[C@@H](C2)N(CC2CC2)CC[C@]314)C[C@@]1(O)[C@H]2Cc3ccc(O)c4c3[C@@]1(CCN2CC1CC1)[C@H]5O4,1.76,-3.73,-5.39,10.6,-5.37,-2.67,5.59,7.55,-7.06,–,–,–,–,–,–,–,–,–
O=C(Nc1cccnc1)c1cc(-c2ccnc(F)c2)ccc1OCc1ccccc1,2.47,-3.53,-5.94,52.5,20.7,3.77,4.27,6.84,25.3,–,–,–,–,–,–,–,–,–
OCCn1cc(-c2ccc3c(c2)CCC3=NO)c(-c2ccncc2)n1,–,–,–,–,–,–,–,–,–,2.27,25.9,48.6,-3.03,1.48,1.67,16.9,-7.84,0.138
O=C(NNS(=O)(=O)c1ccccc1F)c1cc(F)cc(-c2ccccn2)c1,6.14,3.34,0.316,49.9,80.8,3.72,11.9,3.57,15.4,–,–,–,–,–,–,–,–,–
